{"source": "patent US5906820A", "about": "“Epidermal growth factor receptor targeted molecules for treatment of inflammatory arthritis” (priority 1997, dated 1999)", "tested_on": "A431 cells", "assay": "Protein synthesis ([3H]leucine incorporation) assay: inhibition of DAB389 EGF cytotoxicity by chloroquine", "conditions": "for % of control Protein Synthesis, + Chloroquine: relative to chloroquine treatment alone"}
{"smiles": "CCN(CC)CCCC(C)Nc1ccnc2cc(Cl)ccc12", "note": "(stereo not shown) [Chloroquine, chloroquine]", "values": [{"measurement": "% of control Protein Synthesis, + Chloroquine", "setting": "A431 cells, chloroquine 10 μM with DAB389 EGF 1 pm, 20 hr", "result": 100, "unit": "%"}, {"measurement": "% of control Protein Synthesis, + Chloroquine", "setting": "A431 cells, chloroquine 10 μM with DAB389 EGF 10 pm, 20 hr", "result": 61, "unit": "%"}, {"measurement": "blocking of the cytotoxicity of DAB389 EGF", "setting": "A431 cells, chloroquine 10 μM, 20 hr", "result": "completely blocked"}, {"measurement": "inhibition at 10 µM", "setting": "Homo sapiens, A-431, 20 h, read-out: reduction of protein synthesis by chloroquine treatment alone", "result": 27, "unit": "%"}]}
